According to US12310970B2, “Compounds and methods for treating or preventing anterior segment ocular disorders and/or retinal degenerations” (YALE UNIVERSITY, priority 2018, dated 2025):
“Also recorded” adds a separate entry of the source. Structures can show the parent of a compound that is named as a salt.

Assays:
Format in all cases: cell-based
Human ARPE-19 cells [1] = assay: TBHP-induced oxidative stress cell viability assay (RealTime-Glo) in ARPE-19; conditions: for protection from oxidative stress-induced cell death: 0.9 μM 24 h preincubation, 400 μM TBHP 24 h; for protection from TBHP-induced cell death in screen of 65,000 compound Chemical Diversity library: initial high-throughput screening
Description: Immortalized human RPE cells (ARPE-19) obtained from the American Type Culture Collection (ATCC, Manassas, VA, USA) were cultured in Dulbecco's modified Eagle's medium (DMEM; Thermo Fisher Scientific, Waltham, MA) containing 10% fetal bovine serum (FBS), 100 IU/mL penicillin, 100 μg/mL streptomycin, 100 μg/mL gentamicin, and 2.5 μg/mL amphotericin B (Thermo Fisher Scientific).
Human ARPE-19 cells were plated in 96-well plates for 24 hours in DMEM supplemented with FBS and antibiotics. ARPE-19 cells were preincubated with either ciclopirox olamine (Sigma), compound 414 (Chemical Diversity, San Diego, CA), compound 434 (Chemical Diversity) or no compound for 24 hours and then exposed to varying concentrations of tert-butyl hydroperoxide (TBHP; Sigma-Aldrich, St. Louis, MO) the next day for 24 hours. Cell viability was measured the following day by RealTime-Glo™ MT cell viability assay (Promega, Madison, WI) using a BioTek FLx800™ fluorescence reader (BioTek, Winooski, VT).
Initial screening of a library with 640 FDA-approved drugs (Enzo Life Sciences FDA-approved drug library) with known bioactivity, safety & bioavailability, and natural products was performed using TBHP, a chemical oxidizing agent, as a model of oxidative stress-induced cell death.
Initial screening of a library with 65,000 synthetic compounds (Chemical Diversity library) using tert-butyl hydroperoxide (TBHP), a chemical oxidizing agent, as a model of oxidative stress-induced cell death.

Human ARPE-19 cells [2] = assay: Mitochondrial respiration (Seahorse XF, oxygen consumption rate) after TBHP in ARPE-19
Description: (§1) Analysis of mitochondrial function was performed on live cells using XFe96 Extracellular Flux Analyzer (Seahorse Bioscience) using the cell mito stress test (CMST). Human ARPE-19 cells or iPSC-derived RPE were seeded in a 96 well plate and grown for 24 h. Cells were preincubated with compound or no compound for 24 hours and then exposed to varying concentrations of TBHP the next day for 24 hours. Cells were the washed with CMST assay medium (XF base medium DMEM supplemented with 2 mM glutamine, 5.5 mM glucose, and 1 mM sodium pyruvate, pH 7.4), and then incubated in CMST medium for 1 h at 37° C. in a non-CO2 incubator. The CMST assay protocol was performed by manufacturer guidance (Seahorse Bioscience). Oxygen consumption rate (OCR) was detected under basal conditions followed by the sequential addition of oligomycin, carbonyl cyanide 4-(trifluoromethoxy) phenylhydrazone (FCCP), as well as rotenone and antimycin A. The measured parameters include: basal respiration, adenosine triphosphate (ATP) production, maximal respiration, spare respiratory capacity.
Human ARPE-19 cells were preincubated with 3 μM ciclopirox olamine for 18 hours, then treated with 500 μM TBHP for 24 hours and oxygen consumption rate determined using the Seahorse XF analyzer.
The effects of compound treatment on mitochondrial function in human RPE cells were investigated. Human ARPE-19 cells were preincubated with 0.6 μM of compound 414 or compound 434 for 18 hours, then treated with 300 μM TBHP for 24 hours and oxygen consumption rate determined using the Seahorse XF analyzer.

Human ARPE-19 cells [3] = assay: UV-B radiation damage in ARPE-19; conditions: then 1200 mJ/cm^2 UV-B
Description: Human ARPE-19 cells were plated in 96-well plates for 24 hours in DMEM supplemented with FBS and antibiotics. ARPE-19 cells were preincubated with compound or no compound for 24 hours and then exposed to 1200 mJ/cm^2 ultraviolet B (UV-B) radiation in a chamber. Cell viability was measured the following day by […] MT cell viability assay (Promega) using a BioTek FLx800™ fluorescence reader (BioTek, Winooski, VT).
Human ARPE-19 cells were then preincubated with 3 μM of ciclopirox olamine for 24 hours and then exposed to 1200 mJ/cm^2 of UV-B radiation. Ciclopirox olamine protects human ARPE-19 cells exposed to 1200 mJ/cm^2 UV-B radiation (FIG. 6).
To confirm the results using TBHP, another model of oxidative stress in which human RPE cells are exposed to UV-B light was employed. […] Human ARPE-19 cells were then preincubated with 0.6 μM of compound 414 and compound 434 for 24 hours and then exposed to 1200 mJ/cm^2 of UV-B radiation. Compound 414 and compound 434 protective human ARPE-19 cells exposed to 1200 mJ/cm^2 UV-B radiation (FIG. 11).

[4] = test system: Human iPSC-derived RPE cells; assay: Mitochondrial respiration (Seahorse XF) after TBHP in iPSC-derived RPE
Description: Human iPSC-derived RPE cells were preincubated with 3 μM ciclopirox olamine for 18 hours, then treated with 500 μM tert-butyl hydroperoxide (TBHP) for 24 hours. Oxygen consumption rate was determined using the Seahorse XF analyzer to measure mitochondrial function. FIG. 7A depicts basal respiration. FIG. 7B depicts maximal oxygen consumption rate (OCR). FIG. 7C depicts spare respiratory capacity. FIG. 7D depicts ATP production.
Human iPSCs were derived from fibroblasts of a donor with no history of retinal disease. A skin specimen was processed as previously described. Briefly, the skin biopsy was transplanted onto a culture plate and fibroblasts were grown to confluence and then treated with four Yamanaka factors, Oct3/4, Sox-2, Klf4, and c-Myc using the CytoTune™-iPS 2.0 Sendai Reprogramming Kit according to the manufacturer's instructions (Invitrogen-Gibco, Life Technologies=) (31-36). Newly generated iPSC colonies were purified and expanded using MTeSR1™ media (Stem Cell Technologies, Vancouver, Canada).
Human iPSCs were differentiated to iPSC-derived RPE cells as previously described. Human iPSC colonies were lifted and grown as embryoid bodies (EBs) for 4 days in EB formation medium (STEMCELL Technologies). After 5 days, EB medium was replaced with neural induction medium (NIM) containing DMEM/F12 (1:1), 1% N-2 supplement (MEM non-essential amino acids and 2 μg/mL heparin) and suspended EB aggregates were plated onto laminin-coated culture plates and allowed to reattach. After 16 days, neural induction medium was replaced with retinal differentiation medium (RDM) containing DMEM/F12 (3:1), 2% B-27 supplement (Invitrogen-Gibco, Life Technologies), MEM non-essential amino acids and penicillin/streptomycin. The adherent culture was maintained in RDM until the appearance of pigmented iPSC-derived RPE cells. Patches of pigmented iPSC-derived RPE cells were then micro-dissected and cultured on Transwell® plates with RDM+10% fetal bovine serum (FBS) for 2 days and then switched to RDM with 2% FBS until the cells were confluent. Human iPSC-derived RPE cells were then maintained in RDM and allowed to form monolayers within 90 days.
as §1
Human iPSC-derived RPE cells were preincubated with 0.6 μM of compound 414 or compound 434 for 18 hours, then treated with 300 μM TBHP for 24 hours and oxygen consumption rate determined using the Seahorse XF analyzer.

[5] = 3 μM 18 h, then 500 μM TBHP 24 h, vs TBHP-treated group
[6] = 3 μM 18 h, then 500 μM TBHP 24 h
[7] = 0.6 μM 18 h, then 300 μM TBHP 24 h

| Compound | protection from oxidative stress-induced cell death (Human ARPE-19 cells [1]; ARPE-19) | protection from TBHP-induced cell death in screen of 65,000 compound Chemical Diversity library (Human ARPE-19 cells [1]; ARPE-19) | ATP production (Human ARPE-19 cells [2]; [7]) | basal respiration (Human ARPE-19 cells [2]; [7]) | maximal OCR (Human ARPE-19 cells [2]; [7]) | reserve capacity (Human ARPE-19 cells [2]; [7]) | protection from UV-B radiation damage (Human ARPE-19 cells [3]; 0.6 μM 24 h) | ATP production [4, 7] | basal respiration [4, 7] | further results |
| --- | --- | --- | --- | --- | --- | --- | --- | --- | --- | --- |
| Cc1cc(C2CCCCC2)n(O)c(=O)c1 [ciclopirox olamine, 6-cyclohexyl-1-hydroxy-4-methyl-2(1H)-pyridone, ethanolamine salt, reference compound] | – | – | – | – | – | – | – | – | – | cell viability after challenge with TBHP (luminescence); protection from oxidative stress-induced cell death (Human ARPE-19 cells [1]; ARPE-19, ciclopirox olamine preincubation 24 h, then TBHP 24 h (FIG. 1: 0.9 μM, 300 μM TBHP)): protects; also recorded: significantly enhances cell viability; protection from TBHP-induced cell death in screen of 640 FDA-approved drug library (Human ARPE-19 cells [1]; ARPE-19, initial library screening): significantly protects; cell viability, treatment alone compared to no treatment (Human ARPE-19 cells [1]; human RPE cells, ciclopirox olamine alone, no TBHP): significantly enhances cell viability; ATP turnover (Human ARPE-19 cells [2]; [5]): significantly increased; basal respiration (Human ARPE-19 cells [2]; [5]): significantly increased; maximal OCR (Human ARPE-19 cells [2]; [5]): significantly increased; reserve capacity (Human ARPE-19 cells [2]; [5]): significantly increased; protection from UV-B radiation damage (Human ARPE-19 cells [3]; 3 μM 24 h): protects; ATP production [4, 6]: significantly increased; basal respiration [4, 6]: significantly increased; maximal OCR [4, 6]: significantly increased; reserve capacity [4, 6]: significantly increased |
| CCc1cccc(C)c1Nc1c(-c2cc(Br)ccc2O)nc2ncccn12 [compound 414] | Protective effects | significantly protects | significantly increased | significantly increased | significantly increased | significantly increased | protective | significantly increased | significantly increased | cell viability after challenge with TBHP (luminescence); protection from oxidative stress-induced cell death (Human ARPE-19 cells [1]; ARPE-19, compound preincubation, TBHP 24 h (FIG. 8: 0.6 μM, 300 μM TBHP)): protects; also recorded: significantly enhances cell viability; maximal OCR [4, 7]: significantly increased; reserve capacity [4, 7]: significantly increased |
| CCc1cccc(C)c1Nc1c(-c2cc(Br)ccc2O)nc2nc(C)cc(C)n12 [compound 434] | Protective effects | significantly protects | significantly increased | significantly increased | significantly increased | significantly increased | protective | significantly increased | significantly increased | – |
